From patent US20230116196A1, “METHOD OF TREATING CNS DISORDERS WITH NEU[…] GABAERGIC COMPOUNDS” (priority 2017, published 2023) come the findings set out here.

Common to all, as to type: cell-based, mouse
Assay [1] has as its system GABAARs containing the α4 and β subunits, S408/9A mice. Kind of assay: Biotinylation: cell surface levels of GABAARs in hippocampal slices from S408/9A mice. The following applies: 100 nM, 20 min. The method, then:
Consistent with the examples above, hippocampal slices from WT and S408/9A mice were treated for 20 min with 100 nM SGE-516 or vehicle (Con) and subjected to biotinylation followed by immunoblotting with β and α4 subunit antibodies. The ratio of surface/total (S/T) immunoreactivity was then normalized to levels seen in control (100%).

Assay [2] concerns DGGCs from S408/9A mice. Description: Sustained effect on tonic current in DGGCs from S408/9A mice. Conditions: 100 nM, washout.
Assay [3] relates to GABAA receptor α4 subunit S443. Description: Immunoblot of α4 S443 phosphorylation in hippocampal slices. Conditions: 100 SGE-516 for 5 min. The procedure:
Treatment of hippocampal slices with SGE-516 increased the phosphorylation of S408/9 measured using pS408/9 antibodies. To produce antibodies specific for phosphorylated S443, rabbits were injected with a synthetic peptide corresponding to residues […] of the murine α4 subunit in which the serine residue corresponding to S443 was chemically phosphorylated; […]. Hippocampal slices were treated with vehicle (Con), or SGE-516 for 20 min. Slices were immunoblotted with pS408/9, β3, or actin antibodies. The ratio of pS408/9/β3 immunoreactivity was then normalized to control slices (100%=the line).
Affinity purified pS443 was used to immunoblot varying concentrations of the immunizing phosphor-peptide (PP). pS443 was used to immunoblot extracts of hippocampal slices treated without preadsorption (0), preadsorbed with the dephosphorylated (DP), or phosphorylated antigen (PP). […] Moreover, the detection of this band was blocked by the phospho—but not the dephospho-antigen (FIG. 7B).
Hippocampal slices were treated with vehicle (Con) or 100 SGE-516 for 5 min and then immunoblotted with pS443 and α4 antibodies as indicated. pS443 immunoreactivity in hippocampal slices was increased by exposure to SGE-516, while total α4 levels were unaffected (FIG. 7C).
For orientation: A western blot detects proteins with antibodies after separation by electrophoresis.

As to `C[C@@]1(O)CC[C@@]2(C)[C@H](CC[C@@H]3[C@@H]2CC[C@]2(C)[C@@H](C(=O)Cn4nccn4)CC[C@@H]32)C1` [SGE-516], the “increase of plasma membrane levels of GABAARs in slices from S408/9A mice” value in assay [1] was “not seen”. The “tonic current in S408/9A mice” value in assay [2] is “did not modify”. In addition, in assay [3], the “pS443 immunoreactivity in hippocampal slices” value was “increased” and the “total α4 levels” value is “unaffected”.
